Results as given in ChEMBL document CHEMBL3046062, “Anti-HIV, antimycobacterial and antimicrobial studies of newly synthesized 1,2,4-triazole clubbed benzothiazoles” (Med Chem Res, 2013).
In brackets after ≈: the same amount, converted by molar mass.

Assays:
[1] = tested on: Human immunodeficiency virus 2; assay: Antiviral activity against Human immunodeficiency virus type 2 (ISOLATE ROD) infected MT4 cells assessed as inhibition of virus-induced cytopathogenicity after 5 days by MTT assay; format: functional, organism-based; settings: Human immunodeficiency virus 2, ISOLATE ROD, MT4, 120 h
[2] = Selectivity index, ratio of CC50 for human MT4 cells to IC50 for HIV1 3B; format: functional
[3] = tested on: Human immunodeficiency virus 1; assay: Antiviral activity against Human immunodeficiency virus 1 IIIB infected MT4 cells assessed as inhibition of virus-induced cytopathogenicity after 5 days by MTT assay; format: functional, organism-based; settings: MT4, 120 h
[4] = Cytotoxicity against Homo sapiens (human) MT4 cells after 5 days by MTT assay; format: cell-based
[5] = Selectivity index, ratio of CC50 for human MT4 cells to IC50 for HIV2 ROD; format: functional

Q: Which IC50 [1] does the source give for `NNc1nc2ccc(Br)cc2s1` here?
A: > 8.01 µg/mL

Q: And the “Ratio CC50/IC50” value [2]?
A: <1

Q: What about the IC50 [3] of the same molecule?
A: > 8.01 µg/mL

Q: What about the CC50 at 120 h [4] of the same molecule?
A: 8.01 µg/mL (≈ 32.8 µM)

Q: What about the “Ratio CC50/IC50” value [5] of the same molecule?
A: <1

Q: Which results are given for `NNc1nc2ccc([N+](=O)[O-])cc2s1`?
A: IC50 [1]: > 12.8 µg/mL; Ratio CC50/IC50 [2]: <1; IC50 [3]: > 12.8 µg/mL; CC50 at 120 h [4]: 12.8 µg/mL (≈ 60.9 µM); Ratio CC50/IC50 [5]: <1

Q: With `Cc1ccc2nc(NN)sc2c1` as the molecule, how does the IC50 [1] read?
A: > 4.52 µg/mL

Q: What about the “Ratio CC50/IC50” value [2] of the same molecule?
A: <1

Q: And the IC50 [3]?
A: > 4.52 µg/mL

Q: And the CC50 at 120 h [4]?
A: 4.52 µg/mL (≈ 25.2 µM)

Q: And the “Ratio CC50/IC50” value [5]?
A: <1

Q: For `COc1ccc2nc(NN)sc2c1`, which IC50 [1] is on record?
A: > 14.8 µg/mL

Q: What about the “Ratio CC50/IC50” value [2] of the same molecule?
A: <1

Q: And the IC50 [3]?
A: > 14.8 µg/mL

Q: What about the CC50 at 120 h [4] of the same molecule?
A: 14.8 µg/mL (≈ 75.7 µM)

Q: What about the “Ratio CC50/IC50” value [5] of the same molecule?
A: <1

Q: For `NNc1nc2ccc(Cl)cc2s1`, which IC50 [1] is on record?
A: > 2.48 µg/mL

Q: What about the “Ratio CC50/IC50” value [2] of the same molecule?
A: <1

Q: What about the IC50 [3] of the same molecule?
A: > 2.48 µg/mL

Q: And the CC50 at 120 h [4]?
A: 2.48 µg/mL (≈ 12.4 µM)

Q: What about the “Ratio CC50/IC50” value [5] of the same molecule?
A: <1

Q: Which IC50 [1] does the source give for `Cc1cccc2sc(NN)nc12` here?
A: > 9.8 µg/mL

Q: What about the “Ratio CC50/IC50” value [2] of the same molecule?
A: <1

Q: What about the IC50 [3] of the same molecule?
A: > 9.8 µg/mL

Q: And the CC50 at 120 h [4]?
A: 9.8 µg/mL (≈ 54.7 µM)

Q: And the “Ratio CC50/IC50” value [5]?
A: <1

Q: What does the source list for `NNc1nc2c([N+](=O)[O-])cccc2s1`?
A: IC50 [1]: > 14.5 µg/mL; Ratio CC50/IC50 [2]: <1; IC50 [3]: > 14.5 µg/mL; CC50 at 120 h [4]: 14.5 µg/mL (≈ 68.9 µM); Ratio CC50/IC50 [5]: <1

Q: Which results are given for `NNc1nc2cc(Cl)c(Cl)cc2s1`?
A: IC50 [1]: > 80 µg/mL; Ratio CC50/IC50 [2]: <1; IC50 [3]: > 80 µg/mL; CC50 at 120 h [4]: 80 µg/mL (≈ 342 µM); Ratio CC50/IC50 [5]: <1

Q: For `NNc1nc2c(Cl)cccc2s1`, which IC50 [1] is on record?
A: > 117 µg/mL

Q: And the “Ratio CC50/IC50” value [2]?
A: 1

Q: And the IC50 [3]?
A: > 117 µg/mL

Q: And the CC50 at 120 h [4]?
A: 117 µg/mL (≈ 586 µM)

Q: And the “Ratio CC50/IC50” value [5]?
A: 1

Q: For `O=[N+]([O-])c1ccc(-c2nnc(-c3cccnc3)n2Nc2nc3ccc(F)cc3s2)cc1`, which IC50 [1] is on record?
A: > 108 µg/mL

Q: And the “Ratio CC50/IC50” value [2]?
A: 1

Q: And the IC50 [3]?
A: > 108 µg/mL

Q: And the CC50 at 120 h [4]?
A: ≥ 108 µg/mL

Q: And the “Ratio CC50/IC50” value [5]?
A: 1

Q: Which results are given for `O=[N+]([O-])c1ccc(-c2nnc(-c3cccnc3)n2Nc2nc3ccc(Br)cc3s2)cc1`?
A: IC50 [1]: > 13.2 µg/mL; Ratio CC50/IC50 [2]: <1; IC50 [3]: > 13.2 µg/mL; CC50 at 120 h [4]: 13.2 µg/mL (≈ 26.7 µM); Ratio CC50/IC50 [5]: <1

Q: Which IC50 [1] does the source give for `O=[N+]([O-])c1ccc(-c2nnc(-c3cccnc3)n2Nc2nc3ccc([N+](=O)[O-])cc3s2)cc1` here?
A: > 50.8 µg/mL

Q: What about the “Ratio CC50/IC50” value [2] of the same molecule?
A: <1

Q: What about the IC50 [3] of the same molecule?
A: > 50.8 µg/mL

Q: What about the CC50 at 120 h [4] of the same molecule?
A: 50.8 µg/mL (≈ 110 µM)

Q: And the “Ratio CC50/IC50” value [5]?
A: <1

Q: Which IC50 [1] does the source give for `Cc1ccc2nc(Nn3c(-c4ccc([N+](=O)[O-])cc4)nnc3-c3cccnc3)sc2c1` here?
A: > 64.4 µg/mL

Q: And the “Ratio CC50/IC50” value [2]?
A: <1

Q: And the IC50 [3]?
A: > 64.4 µg/mL

Q: And the CC50 at 120 h [4]?
A: 64.4 µg/mL (≈ 150 µM)

Q: What about the “Ratio CC50/IC50” value [5] of the same molecule?
A: <1

Q: With `COc1ccc2nc(Nn3c(-c4ccc([N+](=O)[O-])cc4)nnc3-c3cccnc3)sc2c1` as the molecule, how does the IC50 [1] read?
A: > 12.9 µg/mL

Q: And the “Ratio CC50/IC50” value [2]?
A: <1

Q: What about the IC50 [3] of the same molecule?
A: > 12.9 µg/mL

Q: And the CC50 at 120 h [4]?
A: 12.9 µg/mL (≈ 29 µM)

Q: What about the “Ratio CC50/IC50” value [5] of the same molecule?
A: <1

Q: For `O=[N+]([O-])c1ccc(-c2nnc(-c3cccnc3)n2Nc2nc3ccc(Cl)cc3s2)cc1`, which IC50 [1] is on record?
A: > 53.7 µg/mL

Q: What about the “Ratio CC50/IC50” value [2] of the same molecule?
A: <1

Q: What about the IC50 [3] of the same molecule?
A: > 53.7 µg/mL

Q: And the CC50 at 120 h [4]?
A: 53.7 µg/mL (≈ 119 µM)

Q: What about the “Ratio CC50/IC50” value [5] of the same molecule?
A: <1

Q: For `Cc1cccc2sc(Nn3c(-c4ccc([N+](=O)[O-])cc4)nnc3-c3cccnc3)nc12`, which IC50 [1] is on record?
A: > 13.5 µg/mL

Q: And the “Ratio CC50/IC50” value [2]?
A: <1

Q: And the IC50 [3]?
A: > 13.5 µg/mL

Q: What about the CC50 at 120 h [4] of the same molecule?
A: 13.5 µg/mL (≈ 31.4 µM)

Q: What about the “Ratio CC50/IC50” value [5] of the same molecule?
A: <1

Q: Which IC50 [1] does the source give for `O=[N+]([O-])c1ccc(-c2nnc(-c3cccnc3)n2Nc2nc3c([N+](=O)[O-])cccc3s2)cc1` here?
A: > 13.8 µg/mL

Q: And the “Ratio CC50/IC50” value [2]?
A: <1

Q: And the IC50 [3]?
A: > 13.8 µg/mL

Q: What about the CC50 at 120 h [4] of the same molecule?
A: 13.8 µg/mL (≈ 29.9 µM)

Q: What about the “Ratio CC50/IC50” value [5] of the same molecule?
A: <1

Q: Which results are given for `O=[N+]([O-])c1ccc(-c2nnc(-c3cccnc3)n2Nc2nc3cc(Cl)c(Cl)cc3s2)cc1`?
A: IC50 [1]: > 68.6 µg/mL; Ratio CC50/IC50 [2]: <1; IC50 [3]: > 68.6 µg/mL; CC50 at 120 h [4]: 68.7 µg/mL (≈ 142 µM); Ratio CC50/IC50 [5]: <1

Q: For `O=[N+]([O-])c1ccc(-c2nnc(-c3cccnc3)n2Nc2nc3c(Cl)cccc3s2)cc1`, which IC50 [1] is on record?
A: > 15.5 µg/mL

Q: What about the “Ratio CC50/IC50” value [2] of the same molecule?
A: <1

Q: And the IC50 [3]?
A: > 15.5 µg/mL

Q: What about the CC50 at 120 h [4] of the same molecule?
A: 15.6 µg/mL (≈ 34.6 µM)

Q: What about the “Ratio CC50/IC50” value [5] of the same molecule?
A: <1

Q: Which “Ratio CC50/IC50” value [2] does the source give for `Cc1ccnc2c1NC(=O)c1cccnc1N2C1CC1` [NEVIRAPINE] here?
A: >80

Q: And the IC50 [3]?
A: > 0.05 µg/mL

Q: What about the CC50 at 120 h [4] of the same molecule?
A: > 4 µg/mL
